The test system of data set [1] is carrageenin-induced foot edema. Kind of data set: Inhibition of carrageenin-induced foot edema (C.E.). The conditions noted are these: Rattus norvegicus, read-out: percent inhibition, C.E. Format: in vivo, rats.
Data set [2] can be described thus: Toxicity observations in the carrageenin edema test. It is filed as in vivo. The settings on record: C.E. test, .324 millimoles/kg, oral, rats; for dead: animals dead. As for the experimental part: Anti-inflammatory activity was determined using (1) the inhibition of carrageenin-induced foot edema test described by Winter et al., Proc. Soc. […] Therap. […] J. Vet.
All data were obtained on oral administration in rats.

The subject of data set [3] is adjuvant-induced arthritis. Kind of data set: Inhibition of adjuvant-induced arthritis (A.A.). The settings on record: Rattus norvegicus, oral, rats, read-out: percent inhibition, A.A.; for inhibition in vivo at 80 µmol/kg: .08 millimoles/kg; for inhibition in vivo at 40 µmol/kg: .04 millimoles/kg; for inhibition in vivo at 324 µmol/kg: .324 millimoles/kg. It is filed as in vivo.

In data set [4] the test system is passive cutaneous anaphylaxis. Kind of data set: Passive cutaneous anaphylaxis test (PCA). It is filed as in vivo. On the set-up: key: Actv.: active; Weak: weakly active; Inac.: inactive. The conditions noted are these: rats.
Another data set relates to bradykinin. Kind of data set: Anti-bradykinin test (BDK). Format: in vivo. The conditions noted are these: po.
In data set [5] the test system is acetylcholine-induced abdominal constriction. Kind of data set: Acetylcholine-induced abdominal constriction test (Ach). The settings on record: Mus musculus. It is filed as in vivo, mice.
Another data set concerns human basophils. Kind of data set: In vitro histamine release from human basophils test. It is filed as cell-based. The conditions noted are these: for EC50: read-out: AEC50 (Approximate Effective Concentration resulting in 50% inhibition of allergic release of histamine).
In data set [6] the test system is histamine induced bronchoconstriction. Kind of data set: Histamine induced bronchoconstriction test in anesthetized dogs. The settings on record: intraduodenally; for ED40: Canis lupus familiaris, intraduodenal, read-out: AED40 (Approximate Effective Dose resulting in 40% inhibition of bronchoconstriction). It is filed as in vivo.
Data set [7] concerns guinea pig tracheal contractions by carbachol. Kind of data set: Relaxation of guinea pig tracheal contractions by carbachol. The settings on record: guinea pig trachea, read-out: EC50 (effective concentration to produce 50% relaxation), Carb.
Data set [8] has as its system guinea pig tracheal contractions by barium. Kind of data set: Relaxation of guinea pig tracheal contractions by barium. The conditions noted are these: guinea pig trachea.

Structures can show the parent of a compound that is named as a salt. Where two headings read alike, the source gives them in different places.

We go through 22 compounds from patent US4339576A, “Anti-asthmatic, anti-allergic, anti-cholinergic, bronchodilator and anti-inflammatory 1-[(benzoylphenyl)-lower-alkyl]piperidines and analogs thereof” (Sterling Drug Inc., priority 1981, dated 1982).

On to `CC(C(=O)N1CCC(CN2CCCCC2)CC1)c1cccc(C(=O)c2ccccc2)c1` (stereo not drawn) [Example 1A, 1-[α-(3-benzoylphenyl)propionyl]-4-(1-piperidinylmethyl)piperidine], for which the inhibition in vivo at 80 µmol/kg in data set [1] (.08 millimoles/kg, oral, rats) was determined as 14%. In [2], the “Toxic (result in words)” value is recorded as “Toxic” and the dead is given as 6/8.
Regarding `CC(C(=O)N1CCCCC1CN1CCOCC1)c1cccc(C(=O)c2ccccc2)c1` (stereo not drawn) [Example 1B, 1-[α-(3-Benzoylphenyl)propionyl]-2-(4-morpholinylmethyl)piperidine hydrochloride], the inhibition in vivo at 80 µmol/kg in data set [1] (.08 millimoles/kg, oral, rats) stood at 9%; in data set [3], 0%. In addition, in data set [1] (.324 millimoles/kg, oral, rats), the inhibition in vivo at 324 µmol/kg is 67%.
Turning to `CC(C(=O)N1CCC(CN2CCOCC2)CC1)c1cccc(C(=O)c2ccccc2)c1` (stereo not drawn) [Example 1C, 1-[α-(3-Benzoylphenyl)propionyl]-4-(4-morpholinylmethyl)piperidine hydrochloride], the inhibition in vivo at 80 µmol/kg in data set [1] (.08 millimoles/kg, oral, rats) amounted to 18%; in data set [3], 30%. Moreover, in data set [1] (.324 millimoles/kg, oral, rats), the inhibition in vivo at 324 µmol/kg amounted to 61%.
For `CC(C(=O)N1CCCC(CN2CCOCC2)C1)c1cccc(C(=O)c2ccccc2)c1.Cl` (stereo not drawn) [Example 1D, 1-[α-(3-Benzoylphenyl)propionyl]-3-(4-morpholinylmethyl)piperidine hydrochloride], the inhibition in vivo at 80 µmol/kg in [1] (.08 millimoles/kg, oral, rats) came out at 0%; in data set [3], 37%. In addition, the inhibition in vivo at 324 µmol/kg in [1] (.324 millimoles/kg, oral, rats) stood at 65%. In addition, the “PCA activity (qualitative statement)” value in data set [4] is on record as “Actv”.
For `CC(C(=O)N1CCCCC1CN1CCCCC1)c1cccc(C(=O)c2ccccc2)c1` (stereo not drawn) [Example 1E, 1-[α-(3-Benzoylphenyl)propionyl]-2-(1-piperidinylmethyl)piperidine], in [1] (po), the inhibition in vivo at 80 µmol/kg turned out to be 11% and the inhibition in vivo at 324 µmol/kg was 67%.
As for `CC(C(=O)N1CCCC(CN2CCCCC2)C1)c1cccc(C(=O)c2ccccc2)c1` (stereo not drawn) [Example 1F, 1-[α-(3-Benzoylphenyl)propionyl]-3-(1-piperidinylmethyl)piperidine hydrochloride], in data set [1] (.08 millimoles/kg, oral, rats), the inhibition in vivo at 80 µmol/kg came to 20%. For the same compound, in data set [4], the “PCA activity (qualitative statement)” value is given as “Actv”. Moreover, in data set [2], the “Toxic (result in words)” value was “Toxic” and the dead was 5/8.
As for `CC(CN1CCC(CN2CCCCC2)CC1)c1cccc(C(=O)c2ccccc2)c1` (stereo not shown) [Example 2, 1-[2-(3-benzoylphenyl)propyl]-4-(1-piperidinylmethyl)piperidine dihydrochloride], the inhibition in vivo at 80 µmol/kg came to 47% in data set [1] (.08 millimoles/kg, oral, rats) and 95% in [3]. For the same compound, the inhibition in vivo at 324 µmol/kg in [1] (.324 millimoles/kg, oral, rats) was 64%; in data set [3] it was 9%. The ED50 (usually the midpoint of the dose-response relation) in the data set with bradykinin is 24 mg/kg; in [5] (po), 22 mg/kg; in data set [5] (sc), 11 mg/kg. For the same compound, the inhibition in vivo at 20 µmol/kg in data set [3] (.02 millimoles/kg) was 59%. In addition, the inhibition in vivo at 40 µmol/kg in data set [3] came to 67%.
Regarding `CC(=O)NC1CCN(CC(C)c2cccc(C(=O)c3ccccc3)c2)CC1.Cl` (stereo not shown) [Example 3A, 1-[2-(3-benzoylphenyl)propyl]-4-acetylaminopiperidine hydrochloride], the inhibition in vivo at 80 µmol/kg in data set [1] (.08 millimoles/kg, oral, rats) was found to be 29%; in data set [3], 75%. The inhibition in vivo at 324 µmol/kg in data set [1] (.324 millimoles/kg, oral, rats) stood at 58%. The dead in [2] was 2/8. In addition, the results for the median effective dose (ED50) (in the data set with bradykinin; in data set [5] (po)) were 24 mg/kg and 3.6 mg/kg, respectively.
On to `CC(CN1CCC(N2CCCCC2)CC1)c1cccc(C(=O)c2ccccc2)c1.Cl.Cl` (stereo not shown) [Example 3B, 1-[2-(3-Benzoylphenyl)propyl]-4-(1-piperidinyl)piperidine dihydrochloride], for which the inhibition in vivo at 80 µmol/kg in [1] (.08 millimoles/kg, oral, rats) was found to be 67%. Also, the inhibition in vivo at 324 µmol/kg in data set [1] (.324 millimoles/kg, oral, rats) amounted to 74%. In addition, in data set [2] (animals affected), the ataxic was 1/8 and the hypothermia is 8/8. For the same compound, the dead in data set [2] is 1/8. In data set [5] (po), this compound came in with an ED50 of 7.4 mg/kg.
In the case of `CC(CN1CCC(N2CCCCC2)CC1)c1ccc(C(=O)c2ccccc2)cc1` (stereo not shown) [Example 3D, 1-[2-(4-Benzoylphenyl)propyl]-4-(1-piperdinyl)piperidine dihydrochloride], the inhibition in vivo at 80 µmol/kg worked out at 42% in data set [1] (.08 millimoles/kg, oral, rats) and 86% in [3]. The inhibition in vivo at 324 µmol/kg in data set [1] (.324 millimoles/kg, oral, rats) was 46%. The “PCA activity (qualitative statement)” value in data set [4] is listed as “Inac”. Moreover, the EC50 in the data set on human basophils turned out to be 90000 nM. The compound also returned an ED50 in [5] (po) of 29 mg/kg. Moreover, the “AED40 (Approximate Effective Dose resulting in 40% inhibition of bronchoconstriction)” value in data set [6] was “Inac”.
Take `CC(=O)N(C)C1CCN(CC(C)c2ccc(C(=O)c3ccccc3)cc2)CC1.Cl` (stereo not shown) [Example 3G, 1-[2-(4-Benzoylphenyl)propyl]-4-(N-acetyl-N-methylamino)piperidine hydrochloride]: in data set [7], the EC50 was 340 nM. The “Ba (active or inactive)” value in [8] is listed as “Inact”.
In the case of `CC(c1cccc(C(=O)c2ccccc2)c1)N1CCC(CN2CCOCC2)CC1` (stereo not shown) [Example 4A, 1-[1-(3-benzoylphenyl)ethyl]-4-(4-morpholinylmethyl)piperidine], in [1] (.08 millimoles/kg, oral, rats), the inhibition in vivo at 80 µmol/kg was found to be 0%. Further, the inhibition in vivo at 324 µmol/kg in data set [1] (.324 millimoles/kg, oral, rats) came out at 38%. Also, the “PCA activity (qualitative statement)” value in [4] is on record as “Actv”. The ED40 in data set [6] was above 30 mg/kg.
On to `CC(c1cccc(C(=O)c2ccccc2)c1)N1CCCCC1CN1CCOCC1.Cl.Cl` (stereo not shown) [Example 4B, 1-[1-(3-Benzoylphenyl)ethyl]-2-(4-morpholinylmethyl)piperidine dihydrochloride], for which, in [1] (.08 millimoles/kg, oral, rats), the inhibition in vivo at 80 µmol/kg turned out to be 16%. For the same compound, the inhibition in vivo at 324 µmol/kg in data set [1] (.324 millimoles/kg, oral, rats) was found to be 48%. Further, the convulsions in data set [2] (animals affected at 15 min.) is 2/8.
Take `CC(c1cccc(C(=O)c2ccccc2)c1)N1CCCC(CN2CCOCC2)C1` (stereo not shown) [Example 4C, 1-[1-(3-Benzoylphenyl)ethyl]-3-(4-morpholinylmethyl)piperidine dihydrochloride monohydrate]: the inhibition in vivo at 80 µmol/kg in data set [1] (.08 millimoles/kg, oral, rats) was found to be 0%. Further, in [1] (.324 millimoles/kg, oral, rats), the inhibition in vivo at 324 µmol/kg is 55%.
Take `CC(c1cccc(C(=O)c2ccccc2)c1)N1CCCCC1CN1CCCCC1` (stereo not shown) [Example 4D, 1-[1-(3-Benzoylphenyl)ethyl]-2-(1-piperidinylmethyl)piperidine dihydrochloride monohydrate]: in data set [1] (.08 millimoles/kg, oral, rats), the inhibition in vivo at 80 µmol/kg worked out at 27%. For the same compound, the inhibition in vivo at 324 µmol/kg amounted to 59% in [1] (.324 millimoles/kg, oral, rats) and 56% in data set [3].
In the case of `CC(CN1CCC(N)CC1)c1ccc(C(=O)c2ccccc2)cc1.Cl.Cl` (stereo not shown) [Example 5A, 1-[2-(4-benzoylphenyl)propyl]-4-aminopiperidine-dihydrochloride], the ED50 in data set [5] (po) worked out at 42 mg/kg. In addition, in data set [6], the “AED40 (Approximate Effective Dose resulting in 40% inhibition of bronchoconstriction)” value is given as “Inac”.
Turning to `CC(CN1CCC(NC(=O)C2CC2)CC1)c1ccc(C(=O)c2ccccc2)cc1` (stereo not shown) [Example 6A, 1-[2-(4-benzoylphenyl)propyl]-4-cyclopropanecarbonylaminopiperidine], in data set [1] (.08 millimoles/kg, oral, rats), the inhibition in vivo at 80 µmol/kg was determined as 72%. Moreover, the inhibition in vivo at 324 µmol/kg in data set [1] (.324 millimoles/kg, oral, rats) stood at 77%. Besides, in [4], the “PCA activity (qualitative statement)” value was “Weak”. Also, the “AEC50 (Approximate Effective Concentration resulting in 50% inhibition of allergic release of histamine)” value with human basophils is “Inac”. The compound further gave an ED50 in data set [5] (po) of 16 mg/kg. For the same compound, in data set [6], the ED40 came out at 7.3 mg/kg.
Turning to `CCCC(=O)NC1CCN(CC(C)c2ccc(C(=O)c3ccccc3)cc2)CC1` (stereo not shown) [Example 6B, 1-[2-(4-Benzoylphenyl)propyl]-4-butyrylaminopiperidine], the inhibition in vivo at 80 µmol/kg in data set [1] (.08 millimoles/kg, oral, rats) turned out to be 54%. The inhibition in vivo at 324 µmol/kg in data set [1] (.324 millimoles/kg, oral, rats) was determined as 63%. In addition, in [4], the “PCA activity (qualitative statement)” value is recorded as “Inac”. Also, in the data set on human basophils, the EC50 was above 100000 nM. For the same compound, the ED50 in data set [5] (po) was 16 mg/kg. Moreover, the inhibition in vivo at 40 µmol/kg in data set [3] worked out at 38%. Further, the ED40 in data set [6] amounted to 2 mg/kg.
As to `CC(CN1CCC(NC(=O)c2ccccc2)CC1)c1ccc(C(=O)c2ccccc2)cc1` (stereo not shown) [Example 6C, 1-[2-(4-Benzoylphenyl)propyl]-4-benzoylaminopiperidine], the inhibition in vivo at 80 µmol/kg in data set [1] (.08 millimoles/kg, oral, rats) stood at 50%; in data set [3], 51%. Also, the inhibition in vivo at 324 µmol/kg in [1] (.324 millimoles/kg, oral, rats) is 57%. The ED50 in [5] (po) is 23 mg/kg.
With `CCC(=O)NC1CCN(CC(C)c2ccc(C(=O)c3ccccc3)cc2)CC1` (stereo not shown) [Example 6E, 1-[2-(4-Benzoylphenyl)propyl]-4-propionylaminopiperidine], the ED40 in data set [6] stood at 30 mg/kg.
Take `CC(CN1CCC(NC(=O)C2CCCCC2)CC1)c1ccc(C(=O)c2ccccc2)cc1` (stereo not shown) [Example 6I, 1-[2-(4-Benzoylphenyl)propyl]-4-cyclohexanecarbonylaminopiperidine]: the EC50 in data set [7] amounted to 2600 nM. Also, the “Ba (active or inactive)” value in data set [8] was “Active”.
The matching figures for `CC(=O)NC1CCN(CC(C)c2ccc(C(O)c3ccccc3)cc2)CC1` (stereo not drawn) [Example 7, 1-[2-(α-hydroxy-4-benzylphenyl)propyl]-4-acetylaminopiperidine]: 2900 nM and “Slightly Active”.
